Source: patent publication US20050050594A1, “Tryptophan synthase as a site of herbicide action” (priority 1999, published 2005)
Like-named read-outs stand apart in the source and are kept apart here. Marks after values point to notes of the source that are not given here.

Assays:
[1] = biological target: T1, Salmonella typhimurium tryptophan synthase holoenzyme (α2β2), TSα reaction (Salmonella typhimurium, UniProt P00929); experiment: Inhibition of tryptophan synthase by the TSα reaction, microtiter kinetic coupled enzyme assay; assay type: biochemical
T1 construct: made in house; host or cells: E. coli strain CB149pSTB7
T1 sequence (P00929 whole entry): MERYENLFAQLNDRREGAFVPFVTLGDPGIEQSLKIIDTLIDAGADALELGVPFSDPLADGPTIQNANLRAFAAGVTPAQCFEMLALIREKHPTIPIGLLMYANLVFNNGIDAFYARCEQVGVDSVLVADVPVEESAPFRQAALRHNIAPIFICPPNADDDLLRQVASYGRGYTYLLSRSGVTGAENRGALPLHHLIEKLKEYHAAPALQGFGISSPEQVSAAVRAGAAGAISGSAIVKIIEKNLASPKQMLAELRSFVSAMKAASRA
T1 sequence (P0A2K1 2-397, further chain): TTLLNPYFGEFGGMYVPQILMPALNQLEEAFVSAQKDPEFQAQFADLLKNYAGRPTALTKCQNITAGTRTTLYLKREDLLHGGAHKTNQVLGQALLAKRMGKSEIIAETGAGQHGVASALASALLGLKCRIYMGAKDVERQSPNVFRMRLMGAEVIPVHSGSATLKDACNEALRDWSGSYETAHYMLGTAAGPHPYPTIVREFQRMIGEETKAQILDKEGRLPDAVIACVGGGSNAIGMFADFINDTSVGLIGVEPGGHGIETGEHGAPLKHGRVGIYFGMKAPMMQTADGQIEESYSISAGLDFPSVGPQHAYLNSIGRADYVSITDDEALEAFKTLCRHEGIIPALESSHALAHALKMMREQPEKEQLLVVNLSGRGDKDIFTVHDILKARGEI
Excerpt: Inhibitors of TS were identified by their ability to inhibit the production of glyceraldehyde-3-P by the TSα reaction of the Salmonella typhimurium holoenzyme (α2β2) in the presence of a limiting amount of indole-3-glycerolphosphate and an excess of serine
The assay was developed as a new microtiter plate kinetic enzyme assay based on the combined methods of Creighton (EurJBch 13:1-10, 1970) and Creighton and Yanofsky (JBC 241:980, 1966) with modifications. The rate of glyceraldehyde production was measured as the linear […] (spectrophotometric absorbance at 340 nm) in the presence of glyceraldehyde-3-phosphate dehydrogenase in a coupled enzyme assay.
The assay solution contained a test inhibitor compound, 50 mM Tris-Cl (pH 7.8), 6 mM sodium arsenate, 5 μg/ml pyridoxal phosphate, 0.5 mM DTT, 0.18M NaCl, 60 mM serine, 1.6 mM NAD+, 8 e.u./ml yeast glyceraldehyde-3-phosphate dehydrogenase (Sigma, Catalog #G2647; Kirschner et al., Eur J Bch, 1975, 60:513 and approximately 1.5 e.u. Salmonella TS. 100 μM IGP was added to start the reaction, which was run at 37° C. and using 300 μl per assay in a microtiter plate.
The substrate IGP was used at 1.5 to 2 times its Km concentration to enhance the likelihood of identifying weak inhibitors, binding at the substrate binding site. This approach to identifying enzyme inhibitors was novel, since an excess of all substrates, (at least 5-times the Km value of each), is conventionally used in the measurement of enzyme activity.
Potential inhibitors were evaluated by adding 100 μM inhibitor (equimolar to substrate IGP):or less, in a 1:1 dilution series down from 100 μM, until the inhibition measured was less than 15%. Reaction rates at Vmax were compared in the presence and absence of inhibitors.
In addition, some weaker inhibitors were identified following preincubation of the inhibitor with the TS assay mix for 24 hrs prior to the addition of IGP. The identifying weaker inhibitors is to aid in a quantitative structure activity relationship (QSAR) evaluation, or to identify new herbicidal inhibitor leads. The previously known inhibitor IPP was used as a standard in all tests, where the I50 for IPP was 1-2 uM.

[2] = system: a variety of dicotyledonous and monocotyledonous plants; experiment: Postemergence greenhouse herbicidal test; assay type: in vivo; details: post emergence greenhouse test, 4 kg/ha
Method: The herbicidal activity of the compounds was tested as described in the U.S. Pat. No. 5,635,449. […] In the tests, seedling plants are grown in jiffy flats for about two weeks. The test compounds are dispersed in 50/50 acetone/water mixtures containing 0.5% TWEEN®20, a polyoxyethylene sorbitan monolaurate surfactant of Atlas Chemical Industries, in sufficient quantities to provide the equivalent of about 1.0 kg to 8.0 kg per hectare of test compound when applied to the plants through a spray nozzle operating at 40 psi for a predetermined time. After spraying, the plants are placed on greenhouse benches and are cared for in the usual manner, commensurate with conventional greenhouse practices. From four to five weeks after treatment, the seedling plants are examined and rate according to the rating system set forth below.

[3] = biological target: T2, Arabidopsis TS enzyme (Arabidopsis thaliana, UniProt Q42529); experiment: TSα assay with recombinant plant TSα and TSβ expressed in E. coli; assay type: biochemical; details: inhibitor 82 uM; pAC 758 (1.5 ug) + pAC 755 (3 ug)
T2 construct: GST (N, cleaved yes); made in house; host or cells: E. coli DH5α (pGEX-2T constructs)
T2 sequence (Q42529 with tags, fused parts or gaps): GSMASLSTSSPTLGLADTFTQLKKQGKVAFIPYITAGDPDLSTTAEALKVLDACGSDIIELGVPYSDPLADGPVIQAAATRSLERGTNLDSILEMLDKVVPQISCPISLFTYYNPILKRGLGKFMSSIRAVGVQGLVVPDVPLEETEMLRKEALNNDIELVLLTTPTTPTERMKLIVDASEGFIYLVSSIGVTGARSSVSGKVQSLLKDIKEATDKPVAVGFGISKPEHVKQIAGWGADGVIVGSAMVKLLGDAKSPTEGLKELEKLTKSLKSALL
T2 sequence (P14671 with tags, fused parts or gaps partner): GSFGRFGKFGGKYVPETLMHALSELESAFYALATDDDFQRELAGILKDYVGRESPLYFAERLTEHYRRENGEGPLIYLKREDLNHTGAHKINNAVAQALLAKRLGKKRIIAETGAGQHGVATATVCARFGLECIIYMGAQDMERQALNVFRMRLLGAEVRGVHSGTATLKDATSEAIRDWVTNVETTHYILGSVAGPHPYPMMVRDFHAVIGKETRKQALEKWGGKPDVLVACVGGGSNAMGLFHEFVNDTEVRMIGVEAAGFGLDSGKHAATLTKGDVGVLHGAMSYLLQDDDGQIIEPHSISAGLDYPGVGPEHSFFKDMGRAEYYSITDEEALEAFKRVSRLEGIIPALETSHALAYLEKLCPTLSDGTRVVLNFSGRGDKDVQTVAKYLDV
Method: The plant TS proteins were expressed as fusion proteins with glutathione transferase (GST) to facilitate purification. After purification, the GST protein was cleaved off with thrombin as described above before the plant TS assays were performed. After thrombin cleavage, both TSα and TSβ-subunit proteins retained a Gly-Ser residue on the N-terminal of the protein in addition to the TS sequence. […]
The TSα enzyme assay was conducted as described in Example 3 for Salmonella TSα.
Specifically, phenylthiophosphonic acid compounds were used. The TSα assay conditions were as described for Salmonella TSα in Example 3 except that recombinant plant proteins were used instead of the Salmonella enzyme.

[4] = biological target: TSα subunit; details: TSα subunit reaction; cited from earlier work
[5] = system: TSβ (Spinacea enzyme); experiment: TSβ assay with partially purified spinach enzyme; assay type: biochemical, Spinacea oleracea; set-up: key: the increase in the number of “+” corresponds to the increase of inhibition; +++++: the increase in the number of “+” corresponds to the increase of inhibition; +++++++: the increase in the number of “+” corresponds to the increase of inhibition; details: determined qualitatively
Method: The assay was conducted in microfuge tubes by the TSβ reaction (indole+L-serine→L-tryptophan+H2O). 100 μL of extract was mixed with 150 μL of 0.4 mM indole, 80 mM serine, 0.03 mM PLP, 0.1 M Tris-Cl buffer pH 7.8, containing 7.5 μL of saturated NaCl. The mixture was incubated at 21° C. for increasing time intervals, from 10 min to several hours. The reaction was terminated by adding 25 μL 1 N NaOH, then 1 mL toluene with mixing, and then centifuging in a microfuge 2 min at 10,000×G to partition remaining indole into the toluene phase and away from the enzyme. Remaining indole was subsequently partitioned into the indole reagent phase and reacted with dimethylaminobenzaldehyde: 500 μL of the toluene layer from the microfuge tubes was mixed with 1 ml of the indole reagent in another tube and allowed to separate for 20 min, then the lower layer was carefully pipetted into a cuvette and its absorbance measured at 540 nm. This part of the assay was conducted as known in the art.
A unique microtiter plate method was also developed to streamline the partitioning steps and data collection. First, the TSβ reaction was performed as above in microfuge tubes. […] The plate was covered by a mylar sheet (to protect the plate reader and avoid evaporation) and absorbance was monitored on the plate reader at 535 nm. […]
TS was partially purified from spinach for use in the TSβ assay. The greatest degree of purification was achieved by homogenizing the tissue, preparing the 30-50% ammonium sulfate fraction and freezing it, thawing it, and applying the dissolved precipitate to an FPLC column (Waters SW300, Waters Corporation, Franklin, Mass.) to separate the TS activity (measured as TSβ) from the bulk of the protein. […] Because of the low yield of the assay of partially purified plant TS, endogenous enzyme was measured in crude extracts or in enzyme preparations involving one or two purification steps. […]

| Compound | IC50 ([1]; I50 TS, TSα reaction of the highly purified Salmonella typhimiurium holoenzyme) [nM] | IC50 ([1]; I50 for IPP used as a standard in all tests, TSα reaction, 100 μM IGP) [nM] | IC50 ([1]; TS inhibition I50, TSα reaction, Salmonella holoenzyme, 30 min at 37° C., 100 μM IGP) [nM] | Herbicidal Activity [2] | TSα activity, % of control [3] | TSα activity, relative Vmax [3] [mOD/min] | Ki [4] [nM] | IC50 ([1]; TSα activity (Salmonella enzyme) I50) [nM] | TSβ (Spinacea enzyme), relative activity [5] | IC50 ([1]; TSα reaction, Salmonella holoenzyme, 30 min at 37° C., 100 μM IGP, read-out: TS inhibition I50) [nM] | IC50 ([1]; read-out: TSα activity (Salmonella enzyme) I50) [nM] |
| --- | --- | --- | --- | --- | --- | --- | --- | --- | --- | --- | --- |
| O=P(O)(O)OCCCc1c[nH]c2ccccc12 [Compound 1, indole-3-propanol phosphate, reference compound] | 5000 | 1000 to 2000 | 2000 | inactive | 35.9 % of control | 2.223 | 15000 |  |  |  |  |
| Cc1ccc(SCCCCP(=O)(O)O)c(N)c1 [Phosphonic acid,-{4-[(2-amino-p-tolyl)thio]butyl}-] |  |  |  |  |  |  |  | 1000 | +++++++* |  |  |
| Phosphonic acid, {4-[(o-aminophenyl)thio]butyl}-, compound with cyclohexylamine (1:2) |  |  |  |  |  |  |  |  | +++++ | 400 | 550 |
